In experiment [1] the target is Phe→Leu mutant of human NaCT (Homo sapiens, UniProt Q86YT5, F500L). In words: Citrate uptake via Phe→Leu mutant of human NaCT in HRPE cells. In kind it is cell-based.
For a further experiment, the target named is T1, ceNaCT (Caenorhabditis elegans, UniProt P32739, I91S/L182M).
T1 sequence (P32739 1-551 I91S/L182M): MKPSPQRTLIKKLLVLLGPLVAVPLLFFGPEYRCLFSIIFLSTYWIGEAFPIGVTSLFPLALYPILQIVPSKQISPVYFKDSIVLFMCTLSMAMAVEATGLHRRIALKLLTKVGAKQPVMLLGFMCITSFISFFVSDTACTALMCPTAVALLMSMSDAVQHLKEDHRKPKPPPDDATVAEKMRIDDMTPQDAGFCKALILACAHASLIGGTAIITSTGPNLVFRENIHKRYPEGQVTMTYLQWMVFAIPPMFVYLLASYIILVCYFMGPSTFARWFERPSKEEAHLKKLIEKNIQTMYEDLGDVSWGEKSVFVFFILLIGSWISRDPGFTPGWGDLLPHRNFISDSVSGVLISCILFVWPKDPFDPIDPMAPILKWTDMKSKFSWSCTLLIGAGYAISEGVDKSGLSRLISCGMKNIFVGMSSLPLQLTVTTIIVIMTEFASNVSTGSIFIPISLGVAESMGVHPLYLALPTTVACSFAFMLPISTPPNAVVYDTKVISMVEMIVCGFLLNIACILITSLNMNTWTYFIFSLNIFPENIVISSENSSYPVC
In words: ceNaCT in X. laevis oocytes: uptake and two-electrode voltage clamp. It is filed as cell-based. The text has this:
Electrophysiological studies of ceNaCT transport activity. Initially, ceNaCT cRNA prepared from the pSPORT-ceNaCT cDNA construct was used for functional expression of the transporter in X. laevis oocytes. These initial attempts were unsuccessful. Therefore, a X. laevis oocyte expression vector was used. The coding sequence of ceNaCT cDNA was amplified by PCR using the following primers: 5′-[…]-3′ (SEQ ID NO:23) (forward primer) and 5′-[…]-3′ (SEQ ID NO:24) (reverse primer). The forward primer contained the start codon and also an Xma I site introduced at the 5′-end for the purpose of subcloning. The reverse primer contained the termination codon and also a BamH I site at the 5′end for the purpose of subcloning. The PCR-derived ceNaCT coding fragment was then inserted into the Xma I/BamH I site in the oocyte expression vector pGHl9.
For orientation: Two-electrode voltage clamp is typically applied to oocytes expressing channels or transporters.

In a further experiment the target is T2, rat NaCT (Rattus norvegicus, UniProt Q8CJ44).
T2 sequence (Q8CJ44 1-572): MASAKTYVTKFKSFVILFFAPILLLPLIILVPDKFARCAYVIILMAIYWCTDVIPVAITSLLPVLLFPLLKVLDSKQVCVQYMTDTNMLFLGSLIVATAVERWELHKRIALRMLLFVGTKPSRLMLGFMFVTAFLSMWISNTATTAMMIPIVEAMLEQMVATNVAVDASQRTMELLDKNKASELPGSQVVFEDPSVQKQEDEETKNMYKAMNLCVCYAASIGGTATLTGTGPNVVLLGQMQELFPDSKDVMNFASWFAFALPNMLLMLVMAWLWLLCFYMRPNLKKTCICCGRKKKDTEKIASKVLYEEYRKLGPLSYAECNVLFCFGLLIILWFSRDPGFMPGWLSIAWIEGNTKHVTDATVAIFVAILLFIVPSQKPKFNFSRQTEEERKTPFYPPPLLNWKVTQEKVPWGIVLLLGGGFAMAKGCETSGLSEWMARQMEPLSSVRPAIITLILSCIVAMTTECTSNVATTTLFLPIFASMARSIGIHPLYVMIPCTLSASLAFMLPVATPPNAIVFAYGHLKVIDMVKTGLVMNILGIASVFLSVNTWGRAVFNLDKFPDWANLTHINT
In words: Rat NaCT in X. laevis oocytes, voltage clamp and charge-to-substrate ratio. In kind it is cell-based. The note with it: for Charge-to-substrate ratio: 50 μM substrate, −50 mV, 10 min.

For another experiment, the target named is drIndy (Drosophila melanogaster, UniProt Q9VVT2). The note with it: succinate 0.1 μM.
drIndy, sequence (Q9VVT2 19-590): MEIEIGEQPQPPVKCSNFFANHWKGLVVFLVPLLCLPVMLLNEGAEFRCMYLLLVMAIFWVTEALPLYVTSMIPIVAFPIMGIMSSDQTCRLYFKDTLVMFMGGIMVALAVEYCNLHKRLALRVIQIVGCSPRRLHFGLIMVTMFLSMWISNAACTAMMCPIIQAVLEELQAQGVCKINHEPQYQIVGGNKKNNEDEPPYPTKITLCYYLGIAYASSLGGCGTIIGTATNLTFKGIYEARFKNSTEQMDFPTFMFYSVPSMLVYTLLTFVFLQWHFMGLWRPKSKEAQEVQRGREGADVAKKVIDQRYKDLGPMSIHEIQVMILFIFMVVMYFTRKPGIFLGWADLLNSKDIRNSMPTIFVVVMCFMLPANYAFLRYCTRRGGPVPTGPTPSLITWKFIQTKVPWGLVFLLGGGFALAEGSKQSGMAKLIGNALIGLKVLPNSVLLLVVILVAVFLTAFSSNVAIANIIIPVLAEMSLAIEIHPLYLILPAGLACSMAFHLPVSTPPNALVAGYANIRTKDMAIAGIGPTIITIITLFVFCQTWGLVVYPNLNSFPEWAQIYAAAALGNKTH
In a further experiment the target is T3, rat NaDC3 (Rattus norvegicus, UniProt Q9Z0Z5).
T3 sequence (Q9Z0Z5 1-600): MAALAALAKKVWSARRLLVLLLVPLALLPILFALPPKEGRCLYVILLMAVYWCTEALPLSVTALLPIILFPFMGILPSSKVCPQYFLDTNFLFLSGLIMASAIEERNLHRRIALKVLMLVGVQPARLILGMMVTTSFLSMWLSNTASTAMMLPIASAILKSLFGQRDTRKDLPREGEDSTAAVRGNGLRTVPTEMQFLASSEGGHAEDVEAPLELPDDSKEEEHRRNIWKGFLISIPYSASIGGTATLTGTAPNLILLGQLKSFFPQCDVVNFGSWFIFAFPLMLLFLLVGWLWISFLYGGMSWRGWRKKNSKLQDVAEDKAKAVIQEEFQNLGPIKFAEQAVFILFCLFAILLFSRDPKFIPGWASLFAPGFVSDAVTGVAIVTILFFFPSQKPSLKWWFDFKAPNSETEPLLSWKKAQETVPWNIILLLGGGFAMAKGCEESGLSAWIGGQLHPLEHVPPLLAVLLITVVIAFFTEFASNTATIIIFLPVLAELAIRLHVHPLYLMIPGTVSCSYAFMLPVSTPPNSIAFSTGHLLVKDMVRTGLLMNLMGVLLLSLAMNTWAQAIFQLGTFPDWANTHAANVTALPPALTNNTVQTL
Particulars: medium with 135 μM citrate and 40 μM succinate.

A further experiment has as its system NaDC1. The note with it: cited from earlier work.
A further experiment deals with NaDC3. Particulars: cited from earlier work.

Phe→Leu mutant of human NaCT, sequence (Q86YT5 whole entry F500L): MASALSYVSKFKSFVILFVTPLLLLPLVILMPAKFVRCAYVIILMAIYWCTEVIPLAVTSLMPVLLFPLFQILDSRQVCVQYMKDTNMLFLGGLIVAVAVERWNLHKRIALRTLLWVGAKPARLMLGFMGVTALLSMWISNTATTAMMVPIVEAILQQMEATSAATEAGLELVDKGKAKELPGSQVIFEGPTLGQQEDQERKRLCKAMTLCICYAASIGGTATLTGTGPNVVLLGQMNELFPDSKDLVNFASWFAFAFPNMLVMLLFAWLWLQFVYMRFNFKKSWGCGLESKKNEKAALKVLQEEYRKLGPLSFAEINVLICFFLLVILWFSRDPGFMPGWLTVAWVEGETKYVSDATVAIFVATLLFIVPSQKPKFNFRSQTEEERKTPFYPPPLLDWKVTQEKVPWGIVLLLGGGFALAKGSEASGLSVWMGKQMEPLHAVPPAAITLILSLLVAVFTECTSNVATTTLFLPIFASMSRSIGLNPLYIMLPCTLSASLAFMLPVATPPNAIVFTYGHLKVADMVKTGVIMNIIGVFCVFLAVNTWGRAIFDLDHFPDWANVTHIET

In the case of `O=C(O)CC(O)(CC(=O)O)C(=O)O` [Citrate], in experiment [1], the “Increase in substrate affinity of mutant vs wild type” value is recorded as 7 fold and the “Kt for citrate, Phe→Leu mutant” value turned out to be 78 ± 8 µM. At ceNaCT (citrate 40 μM, pH 6.5), the “Uptake in cRNA-injected vs water-injected oocytes” value is “about 45 fold” and the “Uptake of [^14C]citrate in ceNaCT cRNA-injected oocytes” value amounted to 12.9±0.8 pmol/oocyte/15 min. The “pH-dependent stimulation, pH 7.5 to 6.5” value on ceNaCT (citrate 250 μM) was “about 1.25 fold”. Further, the “Maximal current (Imax)” value at ceNaCT (testing membrane potential −50 mV) was 12.3±0.6 nA. Further, the “K0.5, concentration of citrate for half-maximal current” value on ceNaCT (testing membrane potential −70 mV, pH 6.5) is 34 ± 8 µM. In addition, on ceNaCT (testing membrane potential −150 mV), the “Maximal current (Imax)” value came out at 61.1±2.6 nA. Moreover, at rat NaCT, the Charge-to-substrate ratio worked out at 1. Moreover, the “Currents in rat NaCT oocytes compared to mouse NaCT” value at rat NaCT (0.5 mM citrate) was found to be 3 fold. Also, the Citrate-induced current on rat NaCT (0.5 mM citrate, three oocytes) came out at 87±8 nA.
As for `O=C(O)CCC(=O)O` [Succinate, succinate], the “Uptake of radiolabelled succinate in drIndy cRNA-injected vs water-injected oocytes” value at drIndy worked out at 12 fold. Besides, the “Succinate uptake at physiological concentrations” value on rat NaDC3 is listed as 0.48±0.01 nmol/10^6 cells/minute. In addition, the “Michaelis-Menten constant for succinate, NaDC1” value in the experiment with NaDC1 is 0.1 to 4.0 mM. The “Michaelis-Menten constant for succinate, NaDC3” value in the experiment on NaDC3 is 2 to 50 µM. For the same compound, at rat NaCT, the Charge-to-substrate ratio worked out at 2.

The record behind these values is patent publication US20050095240A1, “NaCT as a target for lifespan expansion and weight reduction” (Medical College of Georgia Research, priority 2002, published 2005).
